We go through 23 compounds from US10280169B2, “Biaryl bruton's tyrosine kinase inhibitors” (BIOGEN MA INC., priority 2013, dated 2019).

This experiment deals with T1, BTK (Homo sapiens, UniProt Q06187).
T1 construct: purchased Upstate 14-552
T1 sequence (Q06187 whole entry): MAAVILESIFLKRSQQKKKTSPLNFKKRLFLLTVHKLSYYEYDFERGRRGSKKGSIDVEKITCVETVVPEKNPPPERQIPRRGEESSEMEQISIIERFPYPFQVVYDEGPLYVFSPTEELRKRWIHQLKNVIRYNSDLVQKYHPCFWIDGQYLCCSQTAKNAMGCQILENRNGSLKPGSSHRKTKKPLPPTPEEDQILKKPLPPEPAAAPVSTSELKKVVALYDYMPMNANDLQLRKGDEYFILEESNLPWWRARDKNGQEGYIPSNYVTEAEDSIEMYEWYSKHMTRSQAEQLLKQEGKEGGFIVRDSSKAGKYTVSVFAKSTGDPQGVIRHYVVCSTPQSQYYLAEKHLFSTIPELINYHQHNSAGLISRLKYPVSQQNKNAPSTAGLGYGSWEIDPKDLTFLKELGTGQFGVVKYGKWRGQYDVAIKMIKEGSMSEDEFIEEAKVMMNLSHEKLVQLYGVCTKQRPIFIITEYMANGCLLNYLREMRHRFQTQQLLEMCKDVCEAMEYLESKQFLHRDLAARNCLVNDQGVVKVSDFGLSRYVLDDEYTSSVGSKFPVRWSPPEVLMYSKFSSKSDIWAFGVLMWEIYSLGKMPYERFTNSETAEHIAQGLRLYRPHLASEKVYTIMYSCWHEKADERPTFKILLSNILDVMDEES
Briefly: In vitro BTK kinase assay: BTK-POLYGAT-LS assay. The experiment is classed as biochemical. To be noted: 10 uM ATP, read-out: IC50 (10 uMATP).
As for `Cc1cc(-c2ncnc3cc[nH]c23)ccc1C(C)NC(=O)c1cc2c(s1)CCCC2` (centres unmarked) [Example I-123, N-(1-(2-methyl-4-(5H-pyrrolo[3,2-d]pyrimidin-4-yl)phenyl)ethyl)-4,5,6,7-tetrahydrobenzo[b]thiophene-2-carboxamide], the IC50 was 10 to 99 nM.

For the compound `Cc1cc(-c2ncnc3nc(N4CCOC(C(=O)O)C4)[nH]c23)ccc1CNC(=O)c1cnc(C(C)(C)C)s1` (centres unmarked) [Example I-124, 4-(6-(4-((2-(tert-butyl)thiazole-5-carboxamido)methyl)-3-methylphenyl)-7H-purin-8-yl)morpholine-2-carboxylic acid], the IC50 fell in the range of 10 to 99 nM.

Regarding `Cc1cc(-c2ncnc3[nH]ncc23)cnc1CNC(=O)c1cc2c(s1)CCCC2` [Example I-125, N-((3-methyl-5-(1H-pyrazolo[3,4-d]pyrimidin-4-yl)pyridin-2-yl)methyl)-4,5,6,7-tetrahydrobenzo[b]thiophene-2-carboxamide], the IC50 was in the range of 10 to 99 nM.

Take `Cc1cc(-c2ccnc3[nH]ccc23)cnc1CNC(=O)c1cc2c(s1)CCCC2` [Example I-126, N-((3-methyl-5-(1H-pyrrolo[2,3-b]pyridin-4-yl)pyridin-2-yl)methyl)-4,5,6,7-tetrahydrobenzo[b]thiophene-2-carboxamide]: the IC50 was 10 to 99 nM.

With `Cc1cc(-c2ncnc3[nH]ncc23)ccc1C(C)NC(=O)c1nc2c(s1)CCCC2` (centres unmarked) [Example I-127, N-(1-(2-methyl-4-(1H-pyrazolo[3,4-d]pyrimidin-4-yl)phenyl)ethyl)-4,5,6,7-tetrahydrobenzo[d]thiazole-2-carboxamide], the IC50 lay within 10 to 99 nM.

`Cc1cc(-c2ncnc3[nH]ncc23)ccc1C(C)NC(=O)c1cnc(C(C)(C)C)s1` (centres unmarked) [Example I-128, 2-(tert-butyl)-N-(1-(2-methyl-4-(1H-pyrazolo[3,4-d]pyrimidin-4-yl)phenyl)ethyl)thiazole-5-carboxamide]: the IC50 fell in the range of 10 to 99 nM.

Take `CC(C)(C)c1ncc(C(=O)NC2CCCc3cc(-c4ncnc5cc[nH]c45)ccc32)s1` (centres unmarked) [Example I-129, N-(6-(5H-pyrrolo[3,2-d]pyrimidin-4-yl)-1,2,3,4-tetrahydronaphthalen-1-yl)-2-(tert-butyl)thiazole-5-carboxamide]: the IC50 is 10 to 99 nM.

For the compound `O=C(NC1CCCc2cc(-c3ncnc4[nH]ncc34)ccc21)c1nc2c(s1)CCC2` (centres unmarked) [Example I-130, N-(6-(1H-pyrazolo[3,4-d]pyrimidin-4-yl)-1,2,3,4-tetrahydronaphthalen-1-yl)-5,6-dihydro-4H-cyclopenta[d]thiazole-2-carboxamide], the IC50 was in the range of 10 to 99 nM.

Turning to `CC(C)(C)c1ccc(C(=O)NC2CCCc3cc(-c4ncnc5[nH]ncc45)ccc32)nc1` (centres unmarked) [Example I-131, N-(6-(1H-pyrazolo[3,4-d]pyrimidin-4-yl)-1,2,3,4-tetrahydronaphthalen-1-yl)-5-(tert-butyl)picolinamide], the IC50 was in the range of 100 to 999 nM.

Regarding `O=C(NC(CO)c1ccc(-c2ncnc3[nH]ncc23)cc1)c1cc2c(s1)CCCC2` (centres unmarked) [Example I-132, N-(1-(4-(1H-pyrazolo[3,4-d]pyrimidin-4-yl)phenyl)-2-hydroxyethyl)-4,5,6,7-tetrahydrobenzo[b]thiophene-2-carboxamide], the IC50 was 10 to 99 nM.

With `Cc1cc(-c2ncnc3nc(N4CCN(C)CC4)sc23)ccc1CNC(=O)c1cnc(C(C)(C)C)s1` [Example I-133, 2-(tert-butyl)-N-(2-methyl-4-(2-(4-methylpiperazin-1-yl)thiazolo[4,5-d]pyrimidin-7-yl)benzyl)thiazole-5-carboxamide], the IC50 lay in the range of 10 to 99 nM.

As to `Cc1cc(-c2ncnc3cc[nH]c23)ccc1C(C)NC(=O)c1cnc(C(C)(C)C)s1` (centres unmarked) [Example I-134, 2-(tert-butyl)-N-(1-(2-methyl-4-(5H-pyrrolo[3,2-d]pyrimidin-4-yl)phenyl)ethyl)thiazole-5-carboxamide], the IC50 was 10 to 99 nM.

Consider `CC(NC(=O)c1cc2c(s1)CCCC2)c1ccc(-c2ncnc3[nH]ncc23)cc1C(F)(F)F` (centres unmarked) [Example I-135, N-(1-(4-(1H-pyrazolo[3,4-d]pyrimidin-4-yl)-2-(trifluoromethyl)phenyl)ethyl)-4,5,6,7-tetrahydrobenzo[b]thiophene-2-carboxamide], for which the IC50 is 10 to 99 nM.

In the case of `CC1(C)CCc2nc(C(=O)NC3CCCc4cc(-c5ncnc6[nH]ncc56)ccc43)sc2C1` (centres unmarked) [Example I-136, N-(6-(1H-pyrazolo[3,4-d]pyrimidin-4-yl)-1,2,3,4-tetrahydronaphthalen-1-yl)-6,6-dimethyl-4,5,6,7-tetrahydrobenzo[d]thiazole-2-carboxamide], the IC50 fell in the range of 10 to 99 nM.

For the compound `O=C(NC1CCCc2cc(-c3ncnc4[nH]ncc34)ccc21)c1nc2c(s1)CCCC2` (centres unmarked) [Example I-137, N-(6-(1H-pyrazolo[3,4-d]pyrimidin-4-yl)-1,2,3,4-tetrahydronaphthalen-1-yl)-4,5,6,7-tetrahydrobenzo[d]thiazole-2-carboxamide], the IC50 fell in the range of 10 to 99 nM.

On to `O=c1c2c(F)cc(C3CC3)cc2ccn1C1CCCc2cc(-c3ncnc4[nH]ncc34)ccc21` (centres unmarked) [Example I-138, 2-(6-(1H-pyrazolo[3,4-d]pyrimidin-4-yl)-1,2,3,4-tetrahydronaphthalen-1-yl)-6-cyclopropyl-8-fluoroisoquinolin-1(2H)-one], for which the IC50 was in the range of 10 to 99 nM.

For `Cc1cc(-c2ccnc3[nH]ncc23)cnc1CNC(=O)c1cc2c(s1)CCCC2` [Example I-139, N-((3-methyl-5-(1H-pyrazolo[3,4-b]pyridin-4-yl)pyridin-2-yl)methyl)-4,5,6,7-tetrahydrobenzo[b]thiophene-2-carboxamide], the IC50 lay within 10 to 99 nM.

Take `Cc1cc(-c2ncnc3cc[nH]c23)cnc1CNC(=O)c1cc2c(s1)CCCC2` [Example I-140, N-((3-methyl-5-(5H-pyrrolo[3,2-d]pyrimidin-4-yl)pyridin-2-yl)methyl)-4,5,6,7-tetrahydrobenzo[b]thiophene-2-carboxamide]: the IC50 was in the range of 100 to 999 nM.

For `Cc1cc(-c2ncnc3sc4c(c23)CCC4)ccc1CNC(=O)c1cnc(C(C)(C)C)s1` [Example I-141], the IC50 was 100 to 999 nM.

Turning to `CC(C)(C)c1ccc(C(=O)NC2CCCc3cc(-c4ncnc5[nH]ncc45)ccc32)cn1` (centres unmarked) [Example I-142, N-(6-(1H-pyrazolo[3,4-d]pyrimidin-4-yl)-1,2,3,4-tetrahydronaphthalen-1-yl)-6-(tert-butyl)nicotinamide], the IC50 was in the range of 100 to 999 nM.

As to `CCC(NC(=O)c1cc2c(s1)CCCC2)c1ccc(-c2ncnc3[nH]ncc23)cc1` (centres unmarked) [Example I-143, N-(1-(4-(1H-pyrazolo[3,4-d]pyrimidin-4-yl)phenyl)propyl)-4,5,6,7-tetrahydrobenzo[b]thiophene-2-carboxamide], the IC50 fell in the range of 100 to 999 nM.

With `CC(C)(C)c1ncc(C(=O)N[C@@H]2CCCc3cc(-c4ccnc5[nH]ncc45)cnc32)s1` [Example I-144, (R)—N-(3-(1H-pyrazolo[3,4-b]pyridin-4-yl)-5,6,7,8-tetrahydroquinolin-8-yl)-2-(tert-butyl)thiazole-5-carboxamide], the IC50 was in the range of 100 to 999 nM.

As for `CC(NC(=O)c1nc2c(s1)CCCC2)c1ccc(-c2ncnc3[nH]ncc23)cc1C(F)(F)F` (centres unmarked) [Example I-145, N-(1-(4-(1H-pyrazolo[3,4-d]pyrimidin-4-yl)-2-(trifluoromethyl)phenyl)ethyl)-4,5,6,7-tetrahydrobenzo[d]thiazole-2-carboxamide], the IC50 was in the range of 100 to 999 nM.

Broadly, the IC50 is the concentration that gives 50% inhibition.
